Test results as given in paper PMC9386913 (Arthritis Research & Therapy, 2022).
Like-named read-outs stand apart in the source and are kept apart here.

How the values were obtained:
LPS-stimulated monocytes = assay: Cytokine secretion in LPS-stimulated monocytes; assay type: cell-based, human; details: LPS 100 ng/mL 4 or 24 h
Description: (§1) Culture supernatants were centrifuged, and the supernatants were collected and analyzed for selected cytokines and chemokines using Milliplex Magpix assays (catalog HCYTO – 60K; Millipore Sigma, Burlington, MA). Levels of proinflammatory cytokines TNF and MCP-1 for the monocytes and macrophages were quantified using specific ELISA kits (R&D, NJ, USA) according to the manufacturer’s recommendations. Data were processed using Milliplex Analyst, and significance was calculated using the one-way analysis of variance (ANOVA) with Dunnett’s post-test algorithms in GraphPad Prism version 5.01. PBMCs were isolated from buffy coat using the Ficoll gradient method. Monocytes were isolated using the […] Technologies Inc. kit (catalog number 19058; Vancouver, BC, Canada). […] Macrophages were then plated and allowed to acclimate for 24 h. […] Medium from the cultured macrophages was used for cytokine analysis using Magpix magnetic beads (Catalog HCYTO – 60K; Millipore Sigma, Burlington, MA). Cell pellets from the macrophage cultures were collected for western blot analysis using capillary electrophoresis to analyze the effect on TTP, with glyceraldehyde 3-phosphate dehydrogenase (GAPDH) used as the house-keeping protein in the capillary electrophoresis. Antibodies against total TTP (CST#7162 Rabbit Monoclonal antibody) and GAPDH (CST#5174 Rabbit Monoclonal antibody) were used to detect the respective proteins.

[1] = Peripheral blood leukocyte and subtype counts in MAD study; details: 150 mg, pre-dose baseline through 14-day dosing (n = 5)
LPS-stimulated PBMCs [2] = assay: Cytokine production in LPS-stimulated PBMCs; assay type: cell-based, human; details: 0.3, 1, and 3 μM
[3] = tested on: LPS-stimulated whole blood; assay: Ex vivo LPS-stimulated whole blood cytokine/chemokine production (TruCulture) in dosed subjects; set-up: species or system human (healthy volunteers)
Description: Briefly, blood (1 mL) was drawn into the LPS-containing TruCulture tubes. The tubes were placed in a 37 °C block thermostat for 24 ± 1 h and then frozen at −70 °C. Media mixed with plasma were analyzed for TNF and other cytokine/chemokine levels. TNF inhibition in ex vivo LPS-stimulated blood was measured as a percentage change in TNF levels from baseline. Percentage change in other cytokines and chemokines in the ex vivo stimulation assay was also measured with respect to their baseline levels.

THP-1 cells = assay: In vitro tachyphylaxis model: daily treatment of THP-1 cells, LPS-stimulated TNF; details: up to 14 days, 0.1 or 1 μM CC-99677 or 1 μM p38 inhibitors
[4] = tested on: TNF, IL-6, and IL-1β transcripts; assay: Cytokine mRNA decay in LPS-stimulated macrophages with actinomycin D; assay type: cell-based, human; details: 1 μM CC-99677 with 10 μg/mL actinomycin D, normalized to GAPDH
Text: After each time point, macrophages were washed with PBS and lysed with RLT Plus Lysis Buffer (Qiagen, Germantown, MD). RNA was isolated using the QiaCube, followed by cDNA preparation using Superscript IV enzyme mix (Invitrogen, Thermo Fisher, Waltham, MA).

LPS-stimulated PBMCs [5] = details: cited from earlier work
TTP = assay: Total TTP protein by capillary electrophoresis in LPS-stimulated macrophages; assay type: cell-based, human; details: 4 h or 24 h
Description: Monocytes and macrophages were pre-treated for 1 h with DMSO or compound, followed by LPS stimulation (100 ng/mL) for 4 or 24 h (includes 1 h pre-treatment). Medium from the cultured macrophages was used for cytokine analysis using Magpix magnetic beads (Catalog HCYTO – 60K; Millipore Sigma, Burlington, MA). Cell pellets from the macrophage cultures were collected for western blot analysis using capillary electrophoresis to analyze the effect on TTP, with glyceraldehyde 3-phosphate dehydrogenase (GAPDH) used as the house-keeping protein in the capillary electrophoresis. Antibodies against total TTP (CST#7162 Rabbit Monoclonal antibody) and GAPDH (CST#5174 Rabbit Monoclonal antibody) were used to detect the respective proteins.

[6] = tested on: LPS-stimulated macrophages; assay: Cytokine secretion in LPS-stimulated monocyte-derived macrophages; assay type: cell-based, human; details: LPS 100 ng/mL 4 or 24 h
Description: as §1

[7] = tested on: SEB/IL-2-stimulated PBMCs; assay: Cytokine production in SEB/IL-2-stimulated PBMCs; assay type: cell-based, human; details: PBMCs from healthy donors and AS patients, SEB + IL-2 72 h
[8] = Plasma pharmacokinetics in MAD study (LC-MS/MS); assay type: in vivo, human (healthy volunteers); details: for Cmax: human, plasma
Description: PK parameters were calculated via non-compartmental methodology using Phoenix version 7 or higher (Princeton, NJ).

[9] = 150-mg dose level cohort, day 5
[10] = continuous dosing at 120 and 150 mg

CCOCc1cnc(Cl)nc1Oc1ccc2c(ccc3sc4c(c32)NC[C@@H](C)NC4=O)n1 [CC-99677]
IL-1β secretion (LPS-stimulated monocytes): concentration-dependent inhibition
IL-6 secretion (LPS-stimulated monocytes): concentration-dependent inhibition
TNF secretion (LPS-stimulated monocytes): strong concentration-dependent inhibition
Mean WBC, lymphocyte, monocyte, and neutrophil counts [1]: comparable to placebo
GM-CSF production (LPS-stimulated PBMCs [2]; PBMCs from AS patients and healthy volunteers): inhibited GM-CSF in PBMCs from AS patients to similar levels as those seen in healthy volunteers
TNF production (LPS-stimulated PBMCs [2]; PBMCs from AS patients, 1 h pretreatment, LPS 50 ng/mL): concentration-dependent inhibition of TNF production
Onset of reduction of TNF production ([3]; 60-, 120-, and 150-mg dose cohorts): reduced as early as day 2
Maximal TNF inhibition (percentage change from baseline) ([3]; 150-mg dose cohort): 70%
TNF inhibition maintained during the dosing period ([3]; 150-mg dose cohort, 14 days): approximately 70%
Maximal inhibition of IL-6 [3, 9]: 50%
Maximal inhibition of MIP-1α [3, 9]: 50%
TNF inhibition, ex vivo LPS-stimulated blood ([3]; all doses > 10 mg): inhibited TNF at all doses > 10 mg, and this inhibition was sustained until day 14
MIP-1α production [3, 10]: inhibited with continuous dosing
MIP-1β production [3, 10]: inhibited with continuous dosing
LPS-stimulated TNF production under continued daily treatment (THP-1 cells): suppressed TNF production throughout the treatment period
mRNA decay of TNF, IL-6, and IL-1β transcripts [4]: significantly greater mRNA decay compared with actinomycin D alone
Inflammatory cytokine production including TNF, IL-6, and GM-CSF (LPS-stimulated PBMCs [5]; LPS-stimulated healthy donor PBMCs): inhibits inflammatory cytokine production
IL-1β inhibition in PBMCs after LPS stimulation (LPS-stimulated PBMCs [5]; PBMCs): no inhibition of IL-1β was observed
Total TTP levels (surrogate for TTP phosphorylation state) (TTP): dose-dependent reduction in total TTP levels
TNF secretion [6]: strong concentration-dependent inhibition
IL-1β secretion ([6]; more potent than in monocytes): concentration-dependent inhibition
IL-6 secretion ([6]; more potent than in monocytes): concentration-dependent inhibition
IL-6 expression [7]: inhibited
IL-17A expression [7]: inhibited
MCP-1 expression [7]: inhibited
TNF expression [7]: inhibited
Dose proportionality of concentration and exposure ([8]; 10 to 150 mg once daily over 14 days): linear, dose-proportional increase in concentration and exposure
Day-to-day plasma accumulation ([8]; all 5 dose levels, minimal detectable plasma CC-99677 > 24 h after dosing): limited to no day-to-day plasma accumulation
Cmax ([8]; oral, 150-mg dose level, read-out: Geometric mean Cmax expressed as molar concentration): ~0.8 µM
Cmax ([8]; day 1, 10 mg oral, read-out: Geometric mean peak concentration (Cmax, CV%)): 0.0205 µg/mL
Cmax ([8]; day 1, 30 mg oral, read-out: Geometric mean peak concentration (Cmax, CV%)): 0.0634 µg/mL
Cmax ([8]; day 1, 60 mg oral, read-out: Geometric mean peak concentration (Cmax, CV%)): 0.15 µg/mL
Cmax ([8]; day 1, 120 mg oral, read-out: Geometric mean peak concentration (Cmax, CV%)): 0.269 µg/mL
Cmax ([8]; day 1, 150 mg oral, read-out: Geometric mean peak concentration (Cmax, CV%)): 0.257 µg/mL
